What was measured:
[1] = known values, quoted for comparison; cited from earlier work
[2] = mass spectrometric hydrophobicity assessment: acoustic droplet ejection from water/pentanol two-phase system versus single-phase aqueous solution; format: physicochemical; details: MRM signal; 25 μL pentanol added to 25 μL water, 1 μg/mL analyte; FIGS. 7A and 7B
Protocol: A two-phase system was prepared by adding […] of pentanol to 25 μL of an aqueous solution of dextromethorphan. A SCIEX Triple Quad 6500+ mass spectrometer system having an acoustic droplet dispenser (shown schematically in FIG. 4) equipped with a two-layer acoustic calibration was employed to eject a plurality of droplets from the two-phase system into an OPI of the mass spectrometer for observing an MRM transition of the target analyte. Although in this example, a single MRM transition was monitored, in other cases, multiple MRM transitions of the target analyte can be monitored.
A single-phase aqueous sample was prepared as 1 μg/ml of dextromethorphan in 25 μL of water. A two-phase system was then formed by adding 25 μL of pentanol to 25 μL water in which 0.025 μg was mixed.
The above mass spectrometer was then utilized to obtain a series of measurements of the 272.2→215.1 MRM transition of the target analyte via sampling the single-phase solution and the two-phase system.
By way of comparison, a single-phase aqueous sample of adenosine was prepared by mixing adenosine with 25 μL of water to prepare a single-phase aqueous solution having a concentration of 1 μg/mL of adenosine. A two-phase system was prepared by adding 25 μL of pentanol to 25 μL aqueous single-phase system of adenosine having a concentration of 1 μg/mL adenosine. […]

Row | Structure (SMILES) | log P [1] | relative ratio of the two-phase sampling signal versus the aqueous sampling signal [2]
1 | COc1ccc2c(c1)[C@]13CCCC[C@@H]1[C@H](C2)N(C)CC3 [dextromethorphan] | +3.75 | –
2 | Nc1ncnc2c1ncn2[C@@H]1O[C@H](CO)[C@@H](O)[C@H]1O [adenosine] | −1.05 | less than that associated with dextromethorphan

Reference: patent US20240272101A1, “Direct Sampling from Phase-Separated Sample for Hydrophobicity Assessment” (DH Technologies Development Pte. Ltd., priority 2021, published 2024)
